Data from US20140335172A1, “OPHTHALMOLOGICAL RINSING AGENT AND METHODS THEREFOF” (priority 2013, published 2014).
Read-outs that look alike come from different tables or passages of the source.

Tests used:
[1] = cited from earlier work
[2] = cited from earlier work; remark: listed apart in the source
[3] = cited from earlier work; for Specific Gravity, at 25° C.: silicone oil grade given by kinematic viscosity, cSt
[4] = Relative efficacy ranking of oil solvents; conditions: relative rank, 1 = most efficient
[5] = cited from earlier work; for Kinematic Viscosity (Sticky**): Table 2
[6] = Relative volatility ranking of oil solvents; format: physicochemical; conditions: relative rank, 1 = most volatile
[7] = cited from earlier work; remark: listed apart in the source
[8] = Relative cell proliferation ranking of oil solvents; format: cell-based; conditions: relative rank, 1 = most proliferative
rMC-1 cells = test: MTS cell viability, rMC-1, 1 hr incubation; format: cell-based; conditions: rMC-1 Müller cells, n=3
Source text: The innermost cell layer of the retina is called the retinal ganglion cell layer. It consists mainly of retinal ganglion cells, with some Müller cells and also some blood capillaries. This cell layer is located closest to the vitreous anatomically and thus is almost in direct contact with the rinsing agent in this study. Therefore, a retinal ganglion cell line (RGC-5) and a rat Müller cell line were used in this in-vitro cell culture study to evaluate the biocompatibility of the rinsing agent in accordance with at least one embodiment of this application.

[9] = Relative cell toxicity ranking of oil solvents; format: cell-based; parameters: key: 1 = most efficient/toxic/proliferative/volatile; conditions: relative rank, 1 = most toxic
RGC-5 = conditions: RGC-5, 30 minutes, n=3
Experimental: In the study, CellTiter 96® AQueous non-radioactive cell proliferation assay (MTS) and Cytotoxicity Detection Kit (LDH assay) were used to test for the cell viability and cell death of the RGC-5 and rMC-1 cells after incubation with the rinsing agent (FIG. 17). The major component of the rinsing agent is octamethyltrisiloxane (1.0 cSt Silicone Oil [SO]) with hydrophobic surfactant DC749 (Dow Corning). Rinsing agents with different concentration of DC749 (0%, 5%, 10% in vol.) were included. The incubation time was designed as 1 hr because the proposed use of the rinsing agent would not be longer than 15 mins in-vivo and therefore a 1 hr study would be more than sufficient in deciding the effect of the proposed rinsing agent on the cells in the eye cavity. Hank's Balanced salt solution (HBSS) was used as the experimental control. Two liquids, perfluorodecalin (PFD) and F6H8, were also included in this study. PFD is a widely accepted short-term used intraoperative adjunct for flattening the folded retina during retinal surgery. F6H8 is a key component of Heavy Silicone Oil (HSO), which has been used as a long-term intraocular tamponade.
In a study similar to 6.4 above, the cell viability and the percentage cell death of RGC-5 were investigated in a 30-minute experiment.

[10] = at 25 ° C., Table 4 surfactants
[11] = silicone oil grade given by kinematic viscosity, cSt

C[Si]1(C)O[Si](C)(C)O[Si](C)(C)O[Si](C)(C)O[Si](C)(C)O1 [Decamethylcyclopentasiloxane]
Vapor Pressure, Pa at 25° C. [1]: 33.2 Pa
Henry's Law Constant, Pa m^3/mol at 25° C. [2]: 3,342,000 Pa m^3/mol
Density (g/cm^3) at 25° C. [3, 10]: 0.954 g/mL

C[Si]1(C)O[Si](C)(C)O[Si](C)(C)O[Si](C)(C)O[Si](C)(C)O[Si](C)(C)O1 [Dodecamethylcyclobexasiloxane]
Vapor Pressure, Pa at 25° C. [1]: 4.6 Pa
Henry's Law Constant, Pa m^3/mol at 25° C. [2]: 14,667 Pa m^3/mol
Density (g/cm^3) at 25° C. [3, 10]: 0.963 g/mL

CCCCCC(F)(F)C(F)(F)C(F)(F)C(F)(F)F [F4H5]
Efficacy [4]: 2
Kinematic Viscosity (Sticky**) [5]: 1.05 cSt
Dynamic Viscosity (mPa · s) at 25° C. [5]: 1.05 mPa · s
Volatility [6]: 2
Surface Tension (mN/m) ([7]; Table 3): 17.43 mN/m
Vapor Pressure (Torr) ([1]; 37° C.): 25.1 (37° C.) Torr
Density (g/cm^3) at 25° C. ([3]; at 25° C., Table 3): 1.284 g/mL

CCCCCCC(F)(F)C(F)(F)C(F)(F)C(F)(F)C(F)(F)C(F)(F)F [F6H6]
Dynamic Viscosity (mPa · s) at 25° C. [5]: 2.38 mPa · s
Surface Tension (mN/m) ([7]; Table 3): 20.0 mN/m
Vapor Pressure (Torr) ([1]; 25° C.): <1 (25° C.) Torr
Density (g/cm^3) at 25° C. ([3]; at 25° C., Table 3): 1.386 g/mL

CCCCCCCCC(F)(F)C(F)(F)C(F)(F)C(F)(F)C(F)(F)C(F)(F)F [F6H8]
Efficacy [4]: 3
Kinematic Viscosity (Sticky**) [5]: 3.44 cSt
Dynamic Viscosity (mPa · s) at 25° C. [5]: 3.44 mPa · s
Cell proliferation [8]: 2
cell viability relative to HBSS, MTS assay (rMC-1 cells): significant decrease in cell viability
Volatility [6]: 3
Surface Tension (mN/m) ([7]; Table 3): 19.65 mN/m
Vapor Pressure (Torr) ([1]; 25° C.): <1 (25° C.) Torr
Density (g/cm^3) at 25° C. ([3]; at 25° C., Table 3): 1.331 g/mL
Cell toxicity [9]: 2

CCCCCCCCCCCCC(F)(F)C(F)(F)C(F)(F)C(F)(F)C(F)(F)C(F)(F)F [F6H12]
Dynamic Viscosity (mPa · s) at 25° C. [5]: 6.99 mPa · s
Surface Tension (mN/m) ([7]; Table 3): 21.1 mN/m
Density (g/cm^3) at 25° C. ([3]; at 25° C., Table 3): 1.25 g/mL

O [H2O]
Dynamic Viscosity (mPa · s) at 25° C. [5]: 0.89 mPa · s
Surface Tension (mN/m) ([7]; Table 3): 72 mN/m
Vapor Pressure (Torr) ([1]; 37° C.): 46.9 (37° C.) Torr
Density (g/cm^3) at 25° C. ([3]; at 25° C., Table 3): 0.970 g/mL

C[Si](C)(C)O[Si](C)(C)C [Hexamethyldisiloxane]
Dynamic Viscosity (mPa · s) at 25° C. [5]: 0.65 mPa · s
Surface Tension (mN/m) ([7]; Table 3): 15.9 mN/m
Surface Tension (mN/m) [7, 11]: 15.9 mN/m
cell viability relative to HBSS, MTS assay (RGC-5; listed as 0.65 mPa·s SO): significant decrease of cell viability
cell viability relative to HBSS, MTS assay (RGC-5; listed as LMW-SO 0.65 mPa·s): reducing the metabolism
Vapor Pressure (Torr) ([1]; 37° C.): 42.2 (37° C.) Torr
Density ([3]; 20° C., Table 3): 0.764 g/mL
Specific Gravity, at 25° C. ([3]; at 25° C.): 0.760

C[Si]1(C)O[Si](C)(C)O[Si](C)(C)O[Si](C)(C)O1 [Octamethylcyclotetrasiloxane]
Vapor Pressure, Pa at 25° C. [1]: 132 Pa
Henry's Law Constant, Pa m^3/mol at 25° C. [2]: 1,214,000 Pa m^3/mol
Density (g/cm^3) at 25° C. [3, 10]: 0.95 g/mL

C[Si](C)(C)O[Si](C)(C)O[Si](C)(C)C [Octamethyltrisiloxane]
Dynamic Viscosity (mPa · s) at 25° C. [5]: 1.0 mPa · s
Surface Tension (mN/m) ([7]; Table 3): 17.4 mN/m
Surface Tension (mN/m) [7, 11]: 17.4 mN/m
Vapor Pressure (Torr) ([1]; 25° C.): 4 (25° C.) Torr
Density (g/cm^3) at 25° C. ([3]; at 25° C., Table 3): 0.818 g/mL
Specific Gravity, at 25° C. ([3]; at 25° C.): 0.816

FC(F)(F)C(F)(F)C(F)(F)C(F)(F)C(F)(F)C(F)(F)C(F)(F)C(F)(F)Br [PFOB]
Efficacy [4]: 3
Kinematic Viscosity (Sticky**) [5]: 1.93 cSt
Dynamic Viscosity (mPa · s) at 25° C. [5]: 1.93 mPa · s
Cell proliferation [8]: 3
Volatility [6]: 4
Surface Tension (mN/m) ([7]; Table 3): 18 mN/m
Vapor Pressure (Torr) ([1]; 37° C.): 10.5 (37° C.) Torr
Density (g/cm^3) at 25° C. ([3]; at 25° C., Table 3): 1.930 g/mL
Cell toxicity [9]: 1
